In ChEMBL document CHEMBL1201862, “PubChem BioAssay data set” (2004) one finds EC50, AC50 and IC50 data, which are given here for 32 compounds.

The target in test [1] is T1, Zinc finger protein mex-5 (Caenorhabditis elegans, UniProt Q9XUB2).
T1 sequence (Q9XUB2 whole entry): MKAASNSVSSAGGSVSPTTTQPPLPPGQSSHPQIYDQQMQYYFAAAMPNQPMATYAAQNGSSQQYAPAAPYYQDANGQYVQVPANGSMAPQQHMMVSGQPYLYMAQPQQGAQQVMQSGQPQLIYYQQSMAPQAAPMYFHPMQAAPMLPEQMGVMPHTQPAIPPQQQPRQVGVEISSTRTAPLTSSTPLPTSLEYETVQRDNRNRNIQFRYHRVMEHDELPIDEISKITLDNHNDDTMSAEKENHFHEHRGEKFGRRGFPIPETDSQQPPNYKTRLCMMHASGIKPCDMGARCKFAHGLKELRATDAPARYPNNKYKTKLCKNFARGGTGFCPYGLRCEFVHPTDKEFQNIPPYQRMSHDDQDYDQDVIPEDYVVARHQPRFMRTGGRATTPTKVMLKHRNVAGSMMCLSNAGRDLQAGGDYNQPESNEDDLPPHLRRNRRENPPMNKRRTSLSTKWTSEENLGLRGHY
The test is described as follows: MEX-5/TCR-2 RNA interaction inhibitors, dose response, biochemical, C. elegans, fluorescence polarization (AID 1960). For orientation: Fluorescence polarisation rises when a labelled molecule tumbles more slowly, as on binding a larger partner.

Test [2] deals with T2, RNA-binding protein pos-1 (Caenorhabditis elegans, UniProt G5EF15).
T2 sequence (G5EF15 whole entry): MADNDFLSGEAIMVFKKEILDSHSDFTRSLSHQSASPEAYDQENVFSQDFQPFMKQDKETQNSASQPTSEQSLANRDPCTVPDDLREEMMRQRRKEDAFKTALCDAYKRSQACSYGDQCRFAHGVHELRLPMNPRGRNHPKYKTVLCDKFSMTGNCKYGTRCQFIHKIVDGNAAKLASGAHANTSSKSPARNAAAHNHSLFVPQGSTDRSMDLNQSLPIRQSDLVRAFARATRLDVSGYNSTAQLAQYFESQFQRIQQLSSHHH
The test is described as follows: inhibitors of POS-1/mex-3 RNA binding, dose response, biochemical, fluorescence polarization (AID 1964).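 Note: purified POS-1 fused to maltose binding protein made in E. coli; potency of compounds blocking POS-1 binding to fluorescent RNA.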

The target in test [3] is Luciferin 4-monooxygenase (Photinus pyralis, UniProt P08659). The test is described as follows: firefly luciferase enzyme inhibitors, dose response, biochemical, luminescence (AID 1891).
Luciferin 4-monooxygenase, sequence (P08659 whole entry): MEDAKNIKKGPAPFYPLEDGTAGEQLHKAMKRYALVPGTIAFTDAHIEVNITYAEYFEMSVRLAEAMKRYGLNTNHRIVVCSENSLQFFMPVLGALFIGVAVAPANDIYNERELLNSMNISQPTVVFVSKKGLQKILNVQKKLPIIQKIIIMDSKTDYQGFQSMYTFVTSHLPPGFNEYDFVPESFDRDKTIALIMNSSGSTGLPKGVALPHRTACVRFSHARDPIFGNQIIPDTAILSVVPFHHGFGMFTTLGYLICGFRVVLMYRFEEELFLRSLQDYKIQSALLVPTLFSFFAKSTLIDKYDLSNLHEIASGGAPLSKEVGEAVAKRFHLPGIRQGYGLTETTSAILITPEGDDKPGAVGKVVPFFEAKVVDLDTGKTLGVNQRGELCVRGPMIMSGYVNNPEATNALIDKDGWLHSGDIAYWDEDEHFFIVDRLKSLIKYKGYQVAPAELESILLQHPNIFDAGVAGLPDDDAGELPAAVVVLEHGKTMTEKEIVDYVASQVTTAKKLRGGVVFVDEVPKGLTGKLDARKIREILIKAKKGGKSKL
Test [4] in a line: Luminescence Cell-Based Dose Confirmation HTS to Identify Inhibitors of Platelet Dense Granule Release. [Related pubchem assays: 1663 (Primary HTS), 1678 (Summary of Project)]. The format is functional.
The nature of test [5]: inhibitors of firefly luciferase expression or activity, dose response, H4 neuroglioma cells, luminescence (AID 1990). The format is functional, cell-based.
Test [6] can be described thus: inhibitors of SNCA 5'UTR-driven reporter translation, confirmation, H4 neuroglioma cells, luminescence (AID 1988). The format is functional, cell-based.
Test [7] has as its target Cytochrome P450 2C19 (Homo sapiens, UniProt P33261). Nature of the test: Cytochrome panel assay with activity outcomes. Panel member name: p450-cyp2c19 Compounds with AC50 equal or less than 10 uM are considered active. The format is functional. Particulars: read-out: AC50.
In test [8] the target is Cytochrome P450 3A4 (Homo sapiens, UniProt P08684).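 Note: CYP3A4 tested as one member of a cytochrome P450 panel screen.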
Cytochrome P450 3A4, sequence (P08684 whole entry): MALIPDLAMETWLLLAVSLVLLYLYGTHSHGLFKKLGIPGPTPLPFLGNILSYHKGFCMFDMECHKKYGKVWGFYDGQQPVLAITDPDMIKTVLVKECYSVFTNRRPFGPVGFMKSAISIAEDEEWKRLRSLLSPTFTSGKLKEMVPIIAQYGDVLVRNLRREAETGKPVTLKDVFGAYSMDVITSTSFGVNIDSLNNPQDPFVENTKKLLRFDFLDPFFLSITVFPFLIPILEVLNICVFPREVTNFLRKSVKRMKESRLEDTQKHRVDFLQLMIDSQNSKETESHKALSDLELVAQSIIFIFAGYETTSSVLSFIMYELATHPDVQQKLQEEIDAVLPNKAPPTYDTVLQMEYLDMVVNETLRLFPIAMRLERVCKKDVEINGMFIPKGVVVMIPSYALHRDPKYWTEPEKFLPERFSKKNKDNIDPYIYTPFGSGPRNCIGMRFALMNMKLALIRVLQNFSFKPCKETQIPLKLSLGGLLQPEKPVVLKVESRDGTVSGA
The nature of test [9]: Luminescence Cell-Based Dose Response HTS to Identify Inhibitors of 5'UTR Stem-Loop Driven Prion Protein mRNA Translation in H4 Neuroglioblastoma Cells. [Related pubchem assays: 1827 (Project Summary), 1813 (Primary HTS)]. The class given is functional.
The target in test [10] is T3, Cytochrome P450 1A2 (Homo sapiens, UniProt P05177).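 Note: PubChem cytochrome P450 panel assay, CYP1A2 panel member.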
T3 sequence (P05177 whole entry): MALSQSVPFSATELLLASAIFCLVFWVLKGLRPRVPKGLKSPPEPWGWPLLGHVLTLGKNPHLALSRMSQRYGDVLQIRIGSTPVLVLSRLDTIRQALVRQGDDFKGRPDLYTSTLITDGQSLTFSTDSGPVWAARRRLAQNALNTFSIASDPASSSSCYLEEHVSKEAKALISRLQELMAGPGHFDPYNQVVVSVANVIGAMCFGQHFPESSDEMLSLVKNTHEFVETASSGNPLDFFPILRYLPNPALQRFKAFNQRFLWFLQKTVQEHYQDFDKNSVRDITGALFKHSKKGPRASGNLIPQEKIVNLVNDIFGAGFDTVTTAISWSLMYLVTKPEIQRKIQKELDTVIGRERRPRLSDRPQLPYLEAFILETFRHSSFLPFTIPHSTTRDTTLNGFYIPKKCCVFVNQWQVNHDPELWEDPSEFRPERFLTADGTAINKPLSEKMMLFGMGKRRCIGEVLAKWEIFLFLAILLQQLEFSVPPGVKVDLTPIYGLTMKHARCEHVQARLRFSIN

In test [11] the target is T4, Rac GTPase-activating protein 1 (Homo sapiens, UniProt Q9H0H5).
T4 sequence (Q9H0H5 whole entry): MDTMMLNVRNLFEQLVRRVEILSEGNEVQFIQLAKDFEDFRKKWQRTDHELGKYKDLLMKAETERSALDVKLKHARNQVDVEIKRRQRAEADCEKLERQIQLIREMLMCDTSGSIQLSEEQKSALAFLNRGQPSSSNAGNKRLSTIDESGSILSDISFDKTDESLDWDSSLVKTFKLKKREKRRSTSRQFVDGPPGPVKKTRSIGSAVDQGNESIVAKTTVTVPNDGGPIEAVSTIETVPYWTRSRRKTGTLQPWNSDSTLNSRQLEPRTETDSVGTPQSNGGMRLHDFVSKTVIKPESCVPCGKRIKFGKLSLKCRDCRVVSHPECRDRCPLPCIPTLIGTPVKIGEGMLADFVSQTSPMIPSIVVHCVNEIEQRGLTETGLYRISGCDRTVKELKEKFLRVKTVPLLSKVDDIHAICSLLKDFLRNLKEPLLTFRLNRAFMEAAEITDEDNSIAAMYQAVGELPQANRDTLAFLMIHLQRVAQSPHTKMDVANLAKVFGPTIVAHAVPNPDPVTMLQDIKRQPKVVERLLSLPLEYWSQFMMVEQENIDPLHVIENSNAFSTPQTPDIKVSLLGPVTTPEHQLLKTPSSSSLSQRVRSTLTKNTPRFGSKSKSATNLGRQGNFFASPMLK
The test is described as follows: MgcRacGAP GTPase-activating activity inhibitors, confirmation, biochemical, ADP Hunter fluorescence, primary and confirmatory (AID 624330). The format is functional.

The target in test [12] is Cytochrome P450 2C9 (Homo sapiens, UniProt P11712).
Cytochrome P450 2C9, sequence (P11712 whole entry): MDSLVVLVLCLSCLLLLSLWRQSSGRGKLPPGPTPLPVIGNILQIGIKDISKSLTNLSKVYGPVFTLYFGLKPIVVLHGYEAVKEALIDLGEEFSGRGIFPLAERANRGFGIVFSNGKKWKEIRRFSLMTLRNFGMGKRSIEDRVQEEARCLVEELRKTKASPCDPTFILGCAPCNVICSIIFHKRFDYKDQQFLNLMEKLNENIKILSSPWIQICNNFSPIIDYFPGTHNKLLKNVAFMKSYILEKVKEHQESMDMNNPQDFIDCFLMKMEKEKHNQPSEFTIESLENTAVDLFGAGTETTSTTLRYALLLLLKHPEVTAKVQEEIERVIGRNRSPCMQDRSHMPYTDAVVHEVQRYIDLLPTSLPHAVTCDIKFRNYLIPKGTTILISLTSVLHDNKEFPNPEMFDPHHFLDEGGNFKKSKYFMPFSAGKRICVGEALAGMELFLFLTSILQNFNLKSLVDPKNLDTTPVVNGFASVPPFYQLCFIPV

Calls of active or inactive are those of the source. Some results are limits rather than exact numbers.

Cytochrome P450 2C19, sequence (P33261 whole entry): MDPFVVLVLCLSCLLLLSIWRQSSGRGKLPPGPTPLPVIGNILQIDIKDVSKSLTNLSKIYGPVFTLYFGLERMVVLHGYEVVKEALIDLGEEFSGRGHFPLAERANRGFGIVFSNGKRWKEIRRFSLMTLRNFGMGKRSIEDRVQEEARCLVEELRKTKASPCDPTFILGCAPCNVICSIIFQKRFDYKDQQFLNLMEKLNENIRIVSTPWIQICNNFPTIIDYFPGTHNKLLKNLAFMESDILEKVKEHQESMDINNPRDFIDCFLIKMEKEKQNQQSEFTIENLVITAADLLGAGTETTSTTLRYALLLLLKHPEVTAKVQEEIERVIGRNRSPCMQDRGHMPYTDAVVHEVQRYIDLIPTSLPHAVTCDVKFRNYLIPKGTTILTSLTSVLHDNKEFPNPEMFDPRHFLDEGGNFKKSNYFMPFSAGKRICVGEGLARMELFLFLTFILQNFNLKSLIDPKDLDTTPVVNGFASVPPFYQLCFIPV

Usually EC50 stands for the concentration giving half of the maximal effect. On to `Cc1cc(C=C2C(=O)N(C)C(=S)N(C)C2=O)c(C)n1C1CCCC1`, for which the EC50 is 129 µM (active) in [1] and 189 µM (active) in [2].

Consider `O=C(Nc1ccc2oc(-c3ccccc3)nc2c1)C1CCCO1` (configuration not stated), for which the EC50 is 70.4 µM (active) in [3] and 25.1 µM (active) in [4].

What is called AC50 is the concentration at which the activity in the assay is half-maximal. `CCOC(=O)N1CCN(S(=O)(=O)c2ccc(C(=O)Nc3ccc(F)cc3F)cc2)CC1`: the half-maximal effective concentration (EC50) in [5] was 10.9 µM (active); in [6], 7.91 µM (active); in test [9], > 120 µM (not active). For the same compound, the figures for the half-maximal activity concentration (AC50) in test [7], in test [8] and in test [10] were 25.1 µM (inconclusive), 14.1 µM (inconclusive) and 6.31 µM (inconclusive), respectively.

As to `COc1ccc(-n2nc3c(=O)[nH][nH]c3cc2=O)cc1`, the EC50 in test [1] was 3.67 µM (active); in test [2], 13.1 µM (active).

By IC50 is commonly meant the concentration that inhibits the measured activity by half. Consider `COc1ccccc1CNCC(=O)N1CC(=O)Nc2ccccc21`, for which, in test [11], the half-inhibitory concentration (IC50) was 143 µM (active).

Consider `O=C(COC(=O)c1ccc(Cl)c(S(=O)(=O)NCc2ccccc2)c1)NCC1CCCO1` (configuration not stated), for which the EC50 in [3] and in test [4] was > 112 µM (not active) each time.

As for `COc1cc2c3nnc(-c4ccccc4)c-3cn(Cc3ccc(F)cc3)c2cc1OC`, the concentration for a half-maximal effect (EC50) in test [1] and in test [2] was > 300 µM (not active) in each case.

As to `CC(=O)N/C=C1\C(=O)N(C)C(=O)C(C#N)=C1C`, the EC50 in [1] is 34.9 µM (active); in [2] it was 36.1 µM (active).

For the compound `COc1cc(/C=N/NC(=O)c2nonc2C)ccc1O`, the EC50 in [3] is 23.5 µM (active); in [4] it was 4.42 µM (active). Further, the IC50 in [11] was 28.8 µM (active).

For the compound `CC(C)CNC(=O)C1Nc2ccccc2C2C=CCC12` (configuration not stated), the EC50 in test [1] and in [2] was > 300 µM (not active) in each case.

As to `C/C(=N\NC(=O)C1(C)CC1(Br)Br)c1ccc(NC(=O)c2ccc(C)o2)cc1` (configuration not stated), the EC50 in test [3] and in [4] was > 112 µM (not active) throughout.

Take `CC1=C(C#N)C(=O)N(C)C(=O)/C1=C\NNc1ccc(C)c(C)c1`: the EC50 in test [1] was 40.6 µM (active); in [2], > 300 µM (not active).

Take `NC(=O)c1ccc[n+](Cc2ccccc2)c1`: the concentration giving a half-maximal response (EC50) in [3] and in [4] was > 112 µM (not active) in each case.

Consider `COc1cc(/C=C/C(=O)OCc2cn3cc(Cl)ccc3n2)ccc1O`, for which the IC50 in test [11] is 45.5 µM (active).

Regarding `CC(=O)N(Cc1c(C#N)c2ccccc2n1C)c1ccccc1`, the 50% effective concentration (EC50) in test [3] and in [4] was > 112 µM (not active) in each case.

`CCOc1cc(/C=C(\C#N)C(=O)NCC2CCCO2)ccc1O` (configuration not stated): the IC50 in test [11] is 41.5 µM (active).

With `COc1cccc(C(=O)c2cc3ccc(O)cc3oc2=O)c1`, the values for the concentration for a half-maximal effect (EC50) in test [3] and in test [4] were 0.571 µM (active) and 1.28 µM (active), respectively.

In the case of `Cc1sc(-n2c(C)cc(C=C3C(=O)NC(=O)NC3=O)c2C)c(C#N)c1C`, the concentration for a half-maximal effect (EC50) in [1] and in test [2] was > 300 µM (not active) throughout.

As for `N#C/C(=C\N1CCN(Cc2ccc3c(c2)OCO3)CC1)c1nc2ccccc2s1`, the EC50 in [1] and in [2] was > 300 µM (not active) throughout.

Take `N#Cc1c(N)nc(SCc2ccccc2)c(C#N)c1-c1ccco1`: the concentration giving a half-maximal response (EC50) in test [1] and in test [2] was > 300 µM (not active) throughout.

In the case of `N#C/C(=N\Nc1ccc(Cl)cc1)C(=O)c1ccsc1`, the EC50 is 10.8 µM (active) in [1] and 81.6 µM (active) in test [2].

On to `CCn1c(=O)c(C(=O)CN(C)Cc2cccc(OC)c2OC)c(N)n(Cc2ccccc2)c1=O`, for which the IC50 in test [11] is 83.9 µM (active).

For the compound `CC(N)Cc1ccccc1Sc1ccc(O)cc1` (configuration not stated), the EC50 in test [3] and in [4] was > 112 µM (not active) in each case. For the same compound, the half-maximal activity concentration (AC50) in [12] was 17.8 µM (inconclusive).

As to `COc1cc(C2C(C#N)=C(N)OC3=C2C(=O)CC(C)(C)C3)cc2c1OCO2` (configuration not stated), the EC50 in test [1] and in test [2] was > 300 µM (not active) throughout.

Regarding `CC(=O)Nc1ccc(OC(=O)Cc2ccc(Cl)cc2)cc1`, the IC50 in [11] is 23.4 µM (active).

Take `Cc1ccc(-c2cc(N)n(Cc3ccc(Cl)cc3)n2)cc1`: the EC50 in [3] and in test [4] was > 112 µM (not active) in each case.

Consider `Cc1ccnn1CC(=O)N/N=C/c1c[nH]nc1-c1ccccc1`, for which the EC50 in test [3] and in test [4] was > 112 µM (not active) throughout.

Consider `CC(C)(C)C(Cn1ccnc1)NC(=O)c1ccc2nc(C3CC3)oc2c1` (configuration not stated), for which the EC50 in test [3] and in [4] was > 112 µM (not active) each time.

For `Cc1cccc(-n2c(=O)c3ccccc3n3c(S)nnc23)c1C`, in test [11], the IC50 is 40.7 µM (active).

With `COc1ccc(NC(S)=NCC2CCN(c3ccc(OC)cc3)C2)cc1` (configuration not stated), the IC50 in test [11] was 39.4 µM (active).

Consider `COc1cc(/C=C/C(=O)OCC(=O)Nc2ccc3c(c2)OCCO3)ccc1O`, for which the IC50 in test [11] was 39.8 µM (active).

Take `COc1ccc(C2=Nn3c(nnc3-c3cc(C)[nH]n3)SC2)cc1`: the EC50 in [3] and in test [4] was > 112 µM (not active) throughout.
